# Assay results from US5451564A, “Antimicrobial composition comprising N-hydroxy heterocyclic thiones” (priority 1991, dated 1995).
# Like-named read-outs stand apart in the source and are kept apart here.
# Assays:
# [1] = aqueous solubility of zinc complex after milling in pyrophosphate solution and dilution with distilled water until clear; format: physicochemical
# Procedure: The concentration of the 2:1 zinc complex was then determined.
# The zinc complex was milled in a 0.1 molar solution of tetrasodium pyrophosphate as described in Example 1. This was then diluted with distilled water until a clear solution was obtained.
# These solutions were prepared by the method described in Example 1.
# [2] = system: mixed suspension of Pseudomonas aeruginosa, Proteus rettgeri, Serratia marcescans, Aeromonas hydrophila, Alcaligenes species, Pseudomonas cepacia and …; assay: repeated bacterial challenge test in acrylic (emulsion) paint; format: cell-based, mixed bacteria; set-up: key: 5: Confluent growth; 4: Heavy growth; 3: Moderate growth; 2: Slight growth; 1: Trace growth; 0: No growth
# Procedure: (§1) An inoculum was prepared containing Pseudomonas aeruginosa, Proteus rettgeri, Serratia marcescans, Aeromonas hydrophila, Alcaligenes species, Pseudomonas cepacia and Pseudomonas putida by culturing the individual organisms onto nutrient agar and incubating for 24 hours at 30° C. Each of the individual suspensions of the test organisms were then prepared at a concentration of 10E8 cfu/ml in one quarter strength Ringer's solution by means of a Thoma counting chamber. A mixed suspension was obtained by mixing equal volumes of the individual suspensions. This procedure was repeated for each of the three challenges to which the test substrates were subjected, and the concentration of micro-organisms in each substrate after challenge was 2×10E6 cfu/ml.
# (§2) Aliquots (50 parts) of a standard laboratory acrylic latex and an emulsion paint were prepared containing 0, 10, 25, 50, 100, 125, 250, 500 and 750 ppm of the 1:2 zinc complex of 3-hydroxy-4-methylthiazol-2(3H)thione which was prepared as a 1% dispersion in an aqueous solution of 0.1M tetrasodium pyrophosphate. A 1% dispersion of the 1:2 zinc complex of 1-hydroxy-2-pyridinethiol in an aqueous solution of 0.1M tetrasodiumpyrophosphate was evaluated in the same manner.
# (§3) The test substrates were then stored at 40° C. for seven days and were then challenged on three separate occasions with 1 part by volume of the mixed suspension of micro-organisms. All the substrates were then incubated at 30° C. and examined for the presence of viable bacteria after 1, 3 and 7 days after each challenge (Phase 1).
# (§4) Those samples which had achieved sterility were then stored for a further 8 weeks at 30° C., and were then rechallenged and the number of viable organisms again determined (Phase 2).
# (§5) Viable bacteria were detected by streaking small aliquots onto nutrient agar followed by incubation at 30° C. for 2 days. The presence or absence of colonies was determined visually. […]
# [3] = system: mixed suspension of Pseudomonas aeruginosa, Proteus rettgeri, Serratia marcescans, Aeromonas hydrophila, Alcaligenes species, Pseudomonas cepacia and …; format: cell-based, mixed bacteria; set-up: key: 5: Confluent growth; 4: Heavy growth; 3: Moderate growth; 2: Slight growth; 1: Trace growth; 0: No growth
# Procedure: as §1, §2, §3, §4, §5
smiles,measurement,setting,value
"Cc1csc(=S)n1[O-].Cc1csc(=S)n1[O-].[Zn+2] [Compound A, 1:2 zinc complex of 3-hydroxy-4-methylthiazol-2(3H)thione]",aqueous solubility,"[1]; finely milled sample, no pyrophosphate",about 5 ppm
same,solubility in the presence of the pyrophosphate anion,"[1]; milled in 0.1 molar tetrasodium pyrophosphate, diluted with distilled water","about 10,000 ppm"
same,growth rating,"[2]; paint 10 ppm, Phase 1 Chall 1, day 1",5
same,growth rating,"[2]; paint 10 ppm, Phase 1 Chall 1, day 3",5
same,growth rating,"[2]; paint 10 ppm, Phase 1 Chall 1, day 7",0
same,growth rating,"[2]; paint 10 ppm, Phase 1 Chall 2, day 1",5
same,growth rating,"[2]; paint 10 ppm, Phase 1 Chall 2, day 3",5
same,growth rating,"[2]; paint 10 ppm, Phase 1 Chall 2, day 7",5
same,growth rating,"[2]; paint 10 ppm, Phase 1 Chall 3, day 1",5
same,growth rating,"[2]; paint 10 ppm, Phase 1 Chall 3, day 3",5
same,growth rating,"[2]; paint 10 ppm, Phase 1 Chall 3, day 7",5
same,growth rating,"[2]; paint 25 ppm, Phase 1 Chall 1, day 1",5
same,growth rating,"[2]; paint 25 ppm, Phase 1 Chall 1, day 3",3
same,growth rating,"[2]; paint 25 ppm, Phase 1 Chall 1, day 7",0
same,growth rating,"[2]; paint 25 ppm, Phase 1 Chall 2, day 1",5
same,growth rating,"[2]; paint 25 ppm, Phase 1 Chall 2, day 3",4
same,growth rating,"[2]; paint 25 ppm, Phase 1 Chall 2, day 7",0
same,growth rating,"[2]; paint 25 ppm, Phase 1 Chall 3, day 1",5
same,growth rating,"[2]; paint 25 ppm, Phase 1 Chall 3, day 3",5
same,growth rating,"[2]; paint 25 ppm, Phase 1 Chall 3, day 7",4
same,growth rating,"[2]; paint 50 ppm, Phase 1 Chall 1, day 1",5
same,growth rating,"[2]; paint 50 ppm, Phase 1 Chall 1, day 3",3
same,growth rating,"[2]; paint 50 ppm, Phase 1 Chall 1, day 7",0
same,growth rating,"[2]; paint 50 ppm, Phase 1 Chall 2, day 1",5
same,growth rating,"[2]; paint 50 ppm, Phase 1 Chall 2, day 3",4
same,growth rating,"[2]; paint 50 ppm, Phase 1 Chall 2, day 7",0
same,growth rating,"[2]; paint 50 ppm, Phase 1 Chall 3, day 1",5
same,growth rating,"[2]; paint 50 ppm, Phase 1 Chall 3, day 3",4
same,growth rating,"[2]; paint 50 ppm, Phase 1 Chall 3, day 7",0
same,growth rating,"[2]; paint 100 ppm, Phase 1 Chall 1, day 1",5
same,growth rating,"[3]; latex 10 ppm, Phase 1 Chall 1, day 1",5
same,growth rating,"[3]; latex 10 ppm, Phase 1 Chall 1, day 3",5
same,growth rating,"[3]; latex 10 ppm, Phase 1 Chall 1, day 7",4
same,growth rating,"[3]; latex 10 ppm, Phase 1 Chall 2, day 1",5
same,growth rating,"[3]; latex 10 ppm, Phase 1 Chall 2, day 3",5
same,growth rating,"[3]; latex 10 ppm, Phase 1 Chall 2, day 7",5
same,growth rating,"[3]; latex 10 ppm, Phase 1 Chall 3, day 1",5
same,growth rating,"[3]; latex 10 ppm, Phase 1 Chall 3, day 3",5
same,growth rating,"[3]; latex 10 ppm, Phase 1 Chall 3, day 7",5
same,growth rating,"[3]; latex 25 ppm, Phase 1 Chall 1, day 1",5
same,growth rating,"[3]; latex 25 ppm, Phase 1 Chall 1, day 3",5
same,growth rating,"[3]; latex 25 ppm, Phase 1 Chall 1, day 7",4
same,growth rating,"[3]; latex 25 ppm, Phase 1 Chall 2, day 1",5
same,growth rating,"[3]; latex 25 ppm, Phase 1 Chall 2, day 3",5
same,growth rating,"[3]; latex 25 ppm, Phase 1 Chall 2, day 7",3
same,growth rating,"[3]; latex 25 ppm, Phase 1 Chall 3, day 1",5
same,growth rating,"[3]; latex 25 ppm, Phase 1 Chall 3, day 3",5
same,growth rating,"[3]; latex 25 ppm, Phase 1 Chall 3, day 7",5
same,growth rating,"[3]; latex 50 ppm, Phase 1 Chall 1, day 1",5
same,growth rating,"[3]; latex 50 ppm, Phase 1 Chall 1, day 3",2
same,growth rating,"[3]; latex 50 ppm, Phase 1 Chall 1, day 7",2
same,growth rating,"[3]; latex 50 ppm, Phase 1 Chall 2, day 1",5
same,growth rating,"[3]; latex 50 ppm, Phase 1 Chall 2, day 3",4
same,growth rating,"[3]; latex 50 ppm, Phase 1 Chall 2, day 7",0
same,growth rating,"[3]; latex 50 ppm, Phase 1 Chall 3, day 1",5
same,growth rating,"[3]; latex 50 ppm, Phase 1 Chall 3, day 3",4
same,growth rating,"[3]; latex 50 ppm, Phase 1 Chall 3, day 7",0
same,growth rating,"[3]; latex 100 ppm, Phase 1 Chall 1, day 1",5
same,growth rating,"[3]; latex 100 ppm, Phase 1 Chall 1, day 3",3
same,growth rating,"[3]; latex 100 ppm, Phase 1 Chall 1, day 7",0
same,growth rating,"[3]; latex 100 ppm, Phase 1 Chall 2, day 1",4
same,growth rating,"[3]; latex 100 ppm, Phase 1 Chall 2, day 3",4
same,growth rating,"[3]; latex 100 ppm, Phase 1 Chall 2, day 7",0
same,growth rating,"[3]; latex 100 ppm, Phase 1 Chall 3, day 1",4
same,growth rating,"[3]; latex 100 ppm, Phase 1 Chall 3, day 3",4
same,growth rating,"[3]; latex 100 ppm, Phase 1 Chall 3, day 7",0
same,growth rating,"[3]; latex 125 ppm, Phase 1 Chall 1, day 1",5
same,growth rating,"[3]; latex 125 ppm, Phase 1 Chall 1, day 3",3
same,growth rating,"[3]; latex 125 ppm, Phase 1 Chall 1, day 7",0
same,growth rating,"[3]; latex 125 ppm, Phase 1 Chall 2, day 1",4
same,growth rating,"[3]; latex 125 ppm, Phase 1 Chall 2, day 3",4
same,growth rating,"[3]; latex 125 ppm, Phase 1 Chall 2, day 7",0
same,growth rating,"[3]; latex 125 ppm, Phase 1 Chall 3, day 1",4
same,growth rating,"[3]; latex 125 ppm, Phase 1 Chall 3, day 3",4
same,growth rating,"[3]; latex 125 ppm, Phase 1 Chall 3, day 7",0
same,growth rating,"[3]; latex 250 ppm, Phase 1 Chall 1, day 1",5
same,growth rating,"[3]; latex 250 ppm, Phase 1 Chall 1, day 3",3
same,growth rating,"[3]; latex 250 ppm, Phase 1 Chall 1, day 7",0
same,growth rating,"[3]; latex 250 ppm, Phase 1 Chall 2, day 1",4
same,growth rating,"[3]; latex 250 ppm, Phase 1 Chall 2, day 3",4
same,growth rating,"[3]; latex 250 ppm, Phase 1 Chall 2, day 7",0
same,growth rating,"[3]; latex 250 ppm, Phase 1 Chall 3, day 1",4
same,growth rating,"[3]; latex 250 ppm, Phase 1 Chall 3, day 3",4
same,growth rating,"[3]; latex 250 ppm, Phase 1 Chall 3, day 7",0
same,growth rating,"[3]; latex 500 ppm, Phase 1 Chall 1, day 1",5
same,growth rating,"[3]; latex 500 ppm, Phase 1 Chall 1, day 3",3
same,growth rating,"[3]; latex 500 ppm, Phase 1 Chall 1, day 7",0
same,growth rating,"[3]; latex 500 ppm, Phase 1 Chall 2, day 1",4
same,growth rating,"[3]; latex 500 ppm, Phase 1 Chall 2, day 3",4
same,growth rating,"[3]; latex 500 ppm, Phase 1 Chall 2, day 7",0
same,growth rating,"[3]; latex 500 ppm, Phase 1 Chall 3, day 1",3
same,growth rating,"[3]; latex 500 ppm, Phase 1 Chall 3, day 3",2
same,growth rating,"[3]; latex 500 ppm, Phase 1 Chall 3, day 7",0
same,growth rating,"[3]; latex 750 ppm, Phase 1 Chall 1, day 1",4
same,growth rating,"[3]; latex 750 ppm, Phase 1 Chall 1, day 3",2
same,growth rating,"[3]; latex 750 ppm, Phase 1 Chall 1, day 7",0
same,growth rating,"[3]; latex 750 ppm, Phase 1 Chall 2, day 1",3
same,growth rating,"[3]; latex 750 ppm, Phase 1 Chall 2, day 3",3
same,growth rating,"[3]; latex 750 ppm, Phase 1 Chall 2, day 7",0
same,growth rating,"[3]; latex 750 ppm, Phase 1 Chall 3, day 1",2
same,growth rating,"[3]; latex 750 ppm, Phase 1 Chall 3, day 3",0
same,growth rating,"[3]; latex 750 ppm, Phase 1 Chall 3, day 7",0
